The test deals with Hs578T multi-cell spheroids, viability. The test is described as follows: Anticancer human tumor Hs578T cell line growth inhibition [IpAb].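 On all read-outs here: drug exposure lasted 7 days before readout.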 Particulars: for viability, T/C: stronger effect = lower value. The method in brief: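 Multi-cell spheroids of 60% tumour cells, 25% HUVEC and 15% MSC in ultra-low-attachment U-bottom wells, treated with agents combined with ipatasertib or abemaciclib. Half-log ranges top out near clinical Cmax, or 10 microM when Cmax is unknown.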

The mark [1] stands for this setting: curve of first compound, second compound 0.1 µM.
The mark [2] stands for this setting: curve of first compound, second compound 0.316 µM.
[3] abbreviates: curve of first compound, second compound 1 µM.
Setting [4] is: curve of first compound, second compound 3.16 µM.
Setting [5] is: curve of first compound, second compound 10 µM.
The mark [6] stands for this setting: second compound 0.1 µM, first compound 0.0316 µM.
Setting [7] is: second compound 0.1 µM, first compound 0.1 µM.
The mark [8] stands for this setting: second compound 0.1 µM, first compound 0.316 µM.
[9] abbreviates: second compound 0.1 µM, first compound 1 µM.
Setting [10] is: second compound 0.1 µM, first compound 3.16 µM.
The mark [11] stands for this setting: second compound 0.1 µM, first compound 10 µM.
[12] abbreviates: second compound 0.316 µM, first compound 0.0316 µM.
The mark [13] stands for this setting: second compound 0.316 µM, first compound 0.1 µM.
Where [14] appears, read: second compound 0.316 µM, first compound 0.316 µM.
The mark [15] stands for this setting: second compound 0.316 µM, first compound 1 µM.
Setting [16] is: second compound 0.316 µM, first compound 3.16 µM.
[17] abbreviates: second compound 0.316 µM, first compound 10 µM.
[18] abbreviates: second compound 1 µM, first compound 0.0316 µM.
Setting [19] is: second compound 1 µM, first compound 0.1 µM.
Where [20] appears, read: second compound 1 µM, first compound 0.316 µM.
Where [21] appears, read: second compound 1 µM, first compound 1 µM.
[22] abbreviates: second compound 1 µM, first compound 3.16 µM.
The mark [23] stands for this setting: second compound 1 µM, first compound 10 µM.
Where [24] appears, read: second compound 3.16 µM, first compound 0.0316 µM.
The mark [25] stands for this setting: second compound 3.16 µM, first compound 0.1 µM.
The mark [26] stands for this setting: second compound 3.16 µM, first compound 0.316 µM.
The mark [27] stands for this setting: second compound 3.16 µM, first compound 1 µM.
The mark [28] stands for this setting: second compound 3.16 µM, first compound 3.16 µM.
Setting [29] is: second compound 3.16 µM, first compound 10 µM.
[30] abbreviates: second compound 10 µM, first compound 0.0316 µM.
Setting [31] is: second compound 10 µM, first compound 0.1 µM.
Where [32] appears, read: second compound 10 µM, first compound 0.316 µM.
Setting [33] is: second compound 10 µM, first compound 1 µM.
The mark [34] stands for this setting: second compound 10 µM, first compound 3.16 µM.
Setting [35] is: second compound 10 µM, first compound 10 µM.

pIC50: −log10 of the molar value. Where “and” joins values, the source holds several entries; their conditions need not be identical. Equal values may be shown once.

As usually defined, the pIC50 is −log10 of the IC50, conventionally taken in molar units. As a reminder, the viability, T/C is the ratio of treated to control. As for `C=CCn1c(=O)c2cnc(Nc3ccc(N4CCN(C)CC4)cc3)nc2n1-c1cccc(C(C)(C)O)n1` + CC(C)NCC(C(=O)N1CCN(c2ncnc3c2C(C)CC3O)CC1)c1ccc(Cl)cc1, the negative logarithm of the IC50 (pIC50) under setting [1] was 6.55; the pIC50 under setting [2] was 6.66; the negative-log IC50 (pIC50) under setting [3] is 6.89; the pIC50 under setting [4] is 7.40; the pIC50 under setting [5] is more than 7.50. For the same compound, the viability, T/C by setting is: under setting [6], 103%; under setting [7], 74.2%; under setting [8], 49.4%; under setting [9], 26.9%; under setting [10], 20.5%; under setting [11], 19.2%. Moreover, the viability, T/C is 74.1% under setting [12]; 62.9% under setting [13]; 44.3% under setting [14]; 27.6% under setting [15]; 22.8% under setting [16]; 16.7% under setting [17]. Also, the viability, T/C is, setting by setting: under setting [18], 64.9%; under setting [19], 54.7%; under setting [20], 35.7%; under setting [21], 25.7%; under setting [22], 25.8%; under setting [23], 17.6%. The viability, T/C was 51.2% under setting [24]; 44.4% under setting [25]; 29.1% under setting [26]; 23.7% under setting [27]; 20.5% under setting [28]; 11.9% under setting [29]. In addition, the viability, T/C by setting is: under setting [30], 49.2%; under setting [31], 37.2%; under setting [32], 22.6%; under setting [33], 21%; under setting [34], 16.3%; under setting [35], 5.72%.

With `Cn1nccc1Nc1nccc(-c2ccn(C(CO)c3ccc(Cl)c(F)c3)c(=O)c2)n1` (centres undefined) + CC(C)NCC(C(=O)N1CCN(c2ncnc3c2C(C)CC3O)CC1)c1ccc(Cl)cc1, the negative-log IC50 (pIC50) was 5.34 under setting [1]; 5.58 under setting [2]; 5.82 under setting [3]; 6.20 under setting [4]; 6.86 under setting [5]. For the same compound, the viability, T/C is, setting by setting: under setting [6], 106%; under setting [7], 109%; under setting [8], 111%; under setting [9], 76.8%; under setting [10], 59.4%; under setting [11], 37.9%. Besides, the viability, T/C runs as follows: under setting [12], 91.5%; under setting [13], 90.5%; under setting [14], 94.3%; under setting [15], 60.9%; under setting [16], 50.9%; under setting [17], 23.6%. The viability, T/C under setting [18] is 65.8%; the viability, T/C under setting [19] is 73.5%; the viability, T/C under setting [20] was 77.7%; the viability, T/C under setting [21] is 54.3%; the viability, T/C under setting [22] was 36.2%; the viability, T/C under setting [23] was 14.1%. In addition, the viability, T/C under setting [24] is 62.2%; the viability, T/C under setting [25] was 61.6%; the viability, T/C under setting [26] is 61.7%; the viability, T/C under setting [27] was 42.4%; the viability, T/C under setting [28] was 16.3%; the viability, T/C under setting [29] is 2.55%. Besides, the viability, T/C reads like this: under setting [30], 48.1%; under setting [31], 55.6%; under setting [32], 45.6%; under setting [33], 31.1%; under setting [34], 3.87%; under setting [35], 0.64%.

`COc1c(OCCCN2CCOCC2)ccc2c3n(c(=NC(=O)c4cnc(N)nc4)nc12)CCN3`: the viability, T/C (compound 0.00316 µM) was 88.8% and 99.7%; the viability, T/C (compound 0.01 µM) was 66.7% and 76.7%; the viability, T/C (compound 0.0316 µM) was 47.2% and 49%; the viability, T/C (compound 0.1 µM) is 29.4%; the viability, T/C (compound 0.316 µM) is 14.3% and 13.7%; the viability, T/C (compound 1 µM) is 8.6% and 5.54%. Moreover, the pIC50 (curve of compound) was 7.59 and 7.50.

For the compound `Cn1ncnc1[C@H]1c2n[nH]c(=O)c3cc(F)cc(c23)N[C@@H]1c1ccc(F)cc1`, the viability, T/C (compound 0.000316 µM) was 94% and 104%; the viability, T/C (compound 0.001 µM) was 101% and 102%; the viability, T/C (compound 0.00316 µM) is 88% and 103%; the viability, T/C (compound 0.01 µM) is 91.7% and 96.2%; the viability, T/C (compound 0.0316 µM) was 90.2% and 96.4%; the viability, T/C (compound 0.1 µM) was 82.2% and 95.2%. Moreover, where the note is “curve of compound”, the negative-log IC50 (pIC50) is less than 7.00.

As for `Cn1ncnc1[C@H]1c2n[nH]c(=O)c3cc(F)cc(c23)N[C@@H]1c1ccc(F)cc1` + CCN1CCN(Cc2ccc(Nc3ncc(F)c(-c4cc(F)c5nc(C)n(C(C)C)c5c4)n3)nc2)CC1, the pIC50 runs as follows: (curve of first compound, second compound 0.01 µM) less than 7.00; (curve of first compound, second compound 0.0316 µM) less than 7.00; under setting [1], less than 7.00; under setting [2], less than 7.00; under setting [3], less than 7.00. Moreover, the viability, T/C by setting is: (second compound 0.01 µM, first compound 0.000316 µM) 101%; (second compound 0.01 µM, first compound 0.001 µM) 100%; (second compound 0.01 µM, first compound 0.00316 µM) 95.2%; (second compound 0.01 µM, first compound 0.01 µM) 88.1%; (second compound 0.01 µM, first compound 0.0316 µM) 93.4%; (second compound 0.01 µM, first compound 0.1 µM) 88.4%. In addition, the viability, T/C reads like this: (second compound 0.0316 µM, first compound 0.000316 µM) 99.3%; (second compound 0.0316 µM, first compound 0.001 µM) 94.3%; (second compound 0.0316 µM, first compound 0.00316 µM) 91.5%; (second compound 0.0316 µM, first compound 0.01 µM) 93%; (second compound 0.0316 µM, first compound 0.0316 µM) 87.3%; (second compound 0.0316 µM, first compound 0.1 µM) 84.8%. In addition, the viability, T/C (second compound 0.1 µM, first compound 0.000316 µM) was 84.9%; the viability, T/C (second compound 0.1 µM, first compound 0.001 µM) is 87.8%; the viability, T/C (second compound 0.1 µM, first compound 0.00316 µM) is 86.8%; the viability, T/C (second compound 0.1 µM, first compound 0.01 µM) is 81.8%; the viability, T/C under setting [6] is 85.5%; the viability, T/C under setting [7] was 85.7%. In addition, the viability, T/C by setting is: (second compound 0.316 µM, first compound 0.000316 µM) 89.8%; (second compound 0.316 µM, first compound 0.001 µM) 88.2%; (second compound 0.316 µM, first compound 0.00316 µM) 91.8%; (second compound 0.316 µM, first compound 0.01 µM) 86.7%; under setting [12], 84.6%; under setting [13], 85.3%. In addition, the viability, T/C (second compound 1 µM, first compound 0.000316 µM) is 106%; the viability, T/C (second compound 1 µM, first compound 0.001 µM) is 102%; the viability, T/C (second compound 1 µM, first compound 0.00316 µM) is 104%; the viability, T/C (second compound 1 µM, first compound 0.01 µM) was 102%; the viability, T/C under setting [18] was 102%; the viability, T/C under setting [19] was 94.7%.
